Reference: patent publication US9365523B2, “Imidazolyl amide compounds and uses related thereto” (priority 2011, dated 2016)
Read-outs that look alike come from different tables or passages of the source.

Assays:
in vitro = conditions: human S-9 fractions
Protocol: (§1) A) Incubation of the article with human liver S9 fractions for up to 60 minutes, followed by LC-MS/MS analysis of the material remaining. […] B) Incubation of JMN3-003 for up to 120 minutes with human plasma derived from mixed, healthy donors, followed by LC-MS/MS quantification of the material remaining.
To estimate metabolic stability of the article, JMN3-003 was mixed with liver S9 fractions (protein concentration 2.5 mg/ml) from pooled mixed gender humans (XenoTech) at a final concentration of 1 μM and reactions initiated by the addition of cofactors (1.14 mM NADPH, 1.43 mM glucose-6-phosphate, 1.43 mM uridine 5′-diphosphoglucuronic acid, 9.42 mM potassium chloride, 2.28 mM magnesium chloride) in 100 mM potassium phosphate buffer, pH 7.4. Samples were incubated at 37° C. with mixing, aliquots removed after 0, 15, 30 and 60 minutes and subjected to methanol precipitation. Cleared supernatants were analyzed by reversed-phase LC-MS/MS (Applied Biosystems API 4000 QTRAP with heated nebulizer (Turbo IonSpray for JMN5-166) and peak areas measured to calculate half life and percent of input compound remaining according to the formulas t½=(−0.693/slope of linear regression analysis of log transformed peak area versus) and % input remaining=(peak area of test compound at tx/peak area of test compound at t0)*100. Positive controls to assess the metabolic competency of the liver S9 fractions were 7-Ethoxycoumarin, Propranolol, and Verapamil (Sigma), which were analyzed in parallel to the article. To determine compound plasma stability, articles were mixed with freshly prepared human plasma at a final concentration of 0.5 mM and incubated at 37° C. for up to 120 minutes. Aliquots were removed at distinct time points as indicated, subjected to methanol precipitation of plasma proteins, and cleared supernatants analyzed by LC-MS/MS with detection of the compound at 254 nm. Values are expressed as percent of compound remaining at each time relative to the amount of that compound present at the starting time point.

[1] = 120-minute incubation
Protocol: as §1
To estimate metabolic stability of the article, JMN3-003 was mixed with liver S9 fractions (protein concentration 2.5 mg/ml) from pooled mixed gender humans (XenoTech) at a final concentration of 1 μM and reactions initiated by the addition of cofactors (1.14 mM NADPH, 1.43 mM glucose-6-phosphate, 1.43 mM uridine 5′-diphosphoglucuronic acid, 9.42 mM potassium chloride, 2.28 mM magnesium chloride) in 100 mM potassium phosphate buffer, pH 7.4. […] Cleared supernatants were analyzed by reversed-phase LC-MS/MS (Applied Biosystems API 4000 QTRAP with heated nebulizer (Turbo IonSpray for JMN5-166) and peak areas measured to calculate half life and percent of input compound remaining according to the formulas t½=(−0.693/slope of linear regression analysis of log transformed peak area versus) and % input remaining=(peak area of test compound at tx/peak area of test compound at t0)*100. Positive controls to assess the metabolic competency of the liver S9 fractions were 7-Ethoxycoumarin, Propranolol, and Verapamil (Sigma), which were analyzed in parallel to the article. […]

influenza A/WSN [2] = type: cell-based, influenza A virus
MeV-Alaska [3] = type: cell-based, measles virus; conditions: primary human PBMCs
cdc2-cyclin B kinase = type: cell-based
[4] = tested on: virus-encoded MeV-F and influenza A/WSN M2; type: cell-based; conditions: 100 nM; paramyxovirus or orthomyxovirus infection
[5] = tested on: MeV H and F mediated membrane fusion; experiment: MeV glycoprotein-mediated cell-to-cell fusion assay; conditions: microscopic and luciferase reporter-based
MeV-Alaska particles = experiment: Virus pre-incubation (virucidal activity) assay; type: cell-based, measles virus; conditions: 1.0 μM, 60 minutes
Protocol: D) JMN3-003 lacks virucidal activity.
Reference wells were kept at 1.0 μM JMN3-003 for the duration of the experiment.

[6] = tested on: MeV-Alaska mRNA and antigenome; type: cell-based, measles virus; conditions: 100 nM
influenza A/WSN [7] = experiment: Quantitation of influenza A/WSN antigenome and released progeny genome copies; type: cell-based, influenza A virus; conditions: MDCK cells, 24 hours
MeV-Alaska [8] = experiment: In vitro virus adaptation (emergence of resistance); type: cell-based, measles virus; conditions: after 90 days of continued viral incubation
Protocol: MeV-Alaska remains sensitive to the compound after continued adaptation events for a 90-day period, while resistance (extensive viral CPE detectable in the presence of 30 μM compound) to pathogen directed AS-136A emerges in step-wise adaptations after 15-25 days. Three independent adaptations (represented by solid, dotted and dashed lines, respectively) were pursued for each compound.
To assess the emergence of viral resistance to inhibition, adaptation attempts were carried out. […] Equally infected cells treated with the virus polymerase targeted RdRp inhibitor AS-136A were examined in parallel for comparison. When cultures became overconfluent, cells were diluted and reseeded for continued incubation in the presence of the same compound concentration as before. At detection of extensive cell-to-cell fusion, cell-associated viral particles were released by two freeze/thaw cycles, diluted 10-fold and used for parallel infections of fresh cell monolayers in the presence of compound at unchanged and doubled concentrations. Cultures treated with the highest compound concentrations in which virus-induced cytopathicity became eventually detectable were used for further adaptation. The approach was terminated after 90 days of continued incubation or when virus-induced cytopathicity was readily detectable in the presence of 30 μM compound.

MeV-Alaska [9] = experiment: Post-infection time-of-addition study; conditions: 1.0 μM
HeLa cells = experiment: Flow-cytometric analysis of cell cycle progression; conditions: JMN3-003 36 hours
Protocol: A) FACS analysis of acridine orange-stained HeLa cells incubated in the presence of JMN3-003 or hydroxyurea for 36 hours, or nocodazole for 16 hours. Dark grey shaded areas show unstained cells, light grey areas correspond to vehicle-treated control cells, and areas under open black curves represent treated cell populations. Dashed vertical lines indicate 2 N (G1/S) and 4N (G2/M) DNA contents. Data shown are representative of three experiments and reflect 10,000 events/treatment conditions.
Green fluorescence at 525 nm resulting from DNA intercalating acridine orange was then measured using a BD LSRII flow cytometer and FlowJo software (Tree Star) for data analysis. For comparison, unstained and stained, solvent-only exposed cells were examined in parallel.

MeV-Alaska [10] = experiment: Cell priming (pre-treatment and wash-out before infection); conditions: 1.0 μM, 60 minutes pre-treatment
Protocol: To assess cell priming, Vero-Slam cells (3×10^5 cells/wellin a 12-well plate format) were incubated in the presence of JMN3-003 at 1.0 μM for one hour at 37° C. at the indicated time points pre-infection, followed by extensive washing and further incubation in growth media. Immediately before infection, cells were reseeded at a density of 2.5×10^5 per well and infected with MeV-Alaska at an MOI=0.2 pfu/cell. […] Cell-associated viral particles were then harvested and infectious titers determined by TCID50 titration.

[11] = tested on: HeLa, Vero-Slam, MDCK cell lines and primary human PBMCs; experiment: Quantification of compound cytotoxicity (metabolic activity of cells)
Protocol: A non-radioactive cytotoxicity assay (CytoTox 96 Non-Radioactive Cytotoxicity Assay, Promega) was employed to metabolic activity of cell after exposure to a compound. In a 96-well plate format, 10,000 cells per well were incubated at 37° C. for 24 hours in four replicates per concentration tested in the presence of compound ranging from 75 μM to 293 nM in two-fold dilutions. Conversion of a tetrazolium salt (INT) into a colored formazan product by cellular lactate dehydrogenase released into the culture supernatants was then measured at 490 nm using a BioRad plate reader. […] Values were plotted in dose-response curves and, if applicable, CC50 concentrations calculated using the Prism 5 software package.

Protocol for Vero cells: Values reflect cell divisions per day and are based on averages of six independent replicate experiments±SEM.
Cells were then washed extensively and reseeded at a density of 1×10^5 cells per well, followed by continued incubation at 37° C. and assessment of life/dead cell numbers every 24 hours using a Countess automated cell counter (Invitrogen). Cells were reseeded as before when fastest growing cultures approached confluency. Growth rates were calculated for each 24-hour time interval using the Prism software package (GraphPad Software Inc.) based on the formula Y=Y0*exp(K*X) with Y equaling life cell numbers, Y0 the Y value at the starting time (t0), and K the growth constant equaling ln(2)/doubling-time.

COc1ccc(-n2c(SC(C)C(=O)Nc3ccc(C)cc3Cl)nc3ccccc32)cc1 (stereo not drawn) [JMN3-003]
extrapolated half-life (in vitro): approximately 200 minutes
input material remaining intact (in vitro; 60-minute exposure): approximately 80%
stability in human plasma [1]: virtually unaffected
A/WSN inhibition (influenza A/WSN [2]): vanished entirely
A/WSN inhibition (influenza A/WSN [2]; some rodent cell lines): less effective
inhibitory activity against MeV-Alaska (MeV-Alaska [3]): extended fully
steady state levels of phosphorylated cdc2-cyclin B kinase (cdc2-cyclin B kinase): increased steady state levels of phosphorylated cdc2-cyclin B kinase
expression of virus-encoded proteins [4]: fully blocked
MeV glycoprotein-mediated cell-to-cell fusion [5]: indistinguishable from that seen in vehicle-treated controls
antiviral effect of preincubation of viral particles (virucidal activity) (MeV-Alaska particles): lacked any appreciable antiviral effect
reduction of viral mRNA and antigenome copy numbers relative to vehicle [6]: > 100 fold
drop in relative viral antigenome levels (influenza A/WSN [7]): > 100 fold
reduction in genome copies of released progeny virions (influenza A/WSN [7]): > 10,000 fold
change in the tolerated dose (MeV-Alaska [8]): only marginal increases
proliferation rates after removal of the compound (Vero cells): resumed those of untreated control cells
compound concentration at which luciferase reporter expression was fully blocked (MeV RdRp): approximately 100 nM
inhibition profile in time-of-addition experiment (MeV-Alaska [9]): very closely resembled the profile of the AS-136A RdRp blocker class
DNA content of treated cells by flow cytometry (HeLa cells): accumulation of cells in a single population with 2N DNA content
inhibitory effect after pre-treatment of cells and wash-out (MeV-Alaska [10]): any substantial inhibitory effect was not detect
Metabolic activity of cells exposed to compound [11]: unchanged
direct cytotoxicity [11]: low
